Source: the supplement of paper PMC11451515

Tests used:
Details in all cases: 48 h
NOMO1 [1] = assay: AUC of viability dose-response curve (% viability x log10 dose units); higher = less sensitive
Method in brief: (§1)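 Area under the curve was integrated by trapezoidal rule from a log-logistic fit of normalised viability, with curves exceeding full viability scaled and quality-control failures removed. The fit had four parameters over log10 doses. Viability came from CellTiter-Glo One luminescence, normalised per plate to DMSO and cell-free wells, after leukemia cells adapted to each medium (500 or 1000 cells/well, 1536-well plates) were exposed to library compounds in DMSO for 48 h at 37°C. The 11 threefold doses ran from 47 μM to 0.79 nM.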

SEM cells [2] = assay: as above
Method in brief: as §1

P12-Ichikawa [3] = assay: as above
Method in brief: as §1

NOMO1 [4] = assay: cell viability relative to DMSO control; higher = less cytotoxic
Method in brief: (§2)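 In 1536-well plates, 5 μl of leukemia cells were seeded per well: 500 cells/well for NOMO1 or SEM and 1000 cells/well for P12-Ichikawa. Each line had first been adapted for at least four passages in each medium. Library compounds in DMSO were pin-dosed at 11 threefold concentrations between 47 μM and 0.79 nM, and CellTiter-Glo One luminescence was read after 48 h at 37°C. Viability is a per-plate percentage relative to DMSO wells, with cell-free wells as background.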

SEM cells [5] = assay: as above
Method in brief: as §2

P12-Ichikawa [6] = assay: as above
Method in brief: as §2

Cc1cn(-c2cc(NC(=O)c3ccc(C)c(Nc4nccc(-c5cccnc5)n4)c3)cc(C(F)(F)F)c2)cn1
AUC of viability dose-response curve
Details | NOMO1 [1] | P12-Ichikawa [3] | SEM cells [2]
HPLM + 10% dialyzed FBS | 436 | 328 | 377
RPMI 5 mM glucose + 10% FBS | 407 | 340 | 345
RPMI 5 mM glucose + 10% dialyzed FBS | 419 | 346 | 347

cell viability [%]
Details | NOMO1 [4] | P12-Ichikawa [6] | SEM cells [5]
HPLM + 10% dialyzed FBS, 0.000781 µM | 100 | 102 | 83.5
HPLM + 10% dialyzed FBS, 0.00234 µM | 122 | 101 | 92.7
HPLM + 10% dialyzed FBS, 0.00702 µM | 123 | 108 | 97.1
HPLM + 10% dialyzed FBS, 0.0211 µM | 135 | 109 | 107
HPLM + 10% dialyzed FBS, 0.0632 µM | 130 | 110 | 107
HPLM + 10% dialyzed FBS, 0.19 µM | 117 | 107 | 109
HPLM + 10% dialyzed FBS, 0.569 µM | 103 | 106 | 95.2
HPLM + 10% dialyzed FBS, 1.71 µM | 88.8 | 12 | 52.4
HPLM + 10% dialyzed FBS, 5.12 µM | 95.3 | 13.1 | 40.9
HPLM + 10% dialyzed FBS, 15.4 µM | 95.2 | 9.96 | 37.3
HPLM + 10% dialyzed FBS, 46.1 µM | 114 | 10.8 | 35.4
RPMI 5 mM glucose + 10% FBS, 0.000781 µM | 99.7 | 112 | 106
RPMI 5 mM glucose + 10% FBS, 0.00234 µM | 111 | 111 | 120
RPMI 5 mM glucose + 10% FBS, 0.00702 µM | 115 | 114 | 108
RPMI 5 mM glucose + 10% FBS, 0.0211 µM | 127 | 117 | 124
RPMI 5 mM glucose + 10% FBS, 0.0632 µM | 113 | 113 | 111
RPMI 5 mM glucose + 10% FBS, 0.19 µM | 131 | 112 | 125
RPMI 5 mM glucose + 10% FBS, 0.569 µM | 117 | 110 | 110
RPMI 5 mM glucose + 10% FBS, 1.71 µM | 66.5 | 43.6 | 31.4
RPMI 5 mM glucose + 10% FBS, 5.12 µM | 61.3 | 11.4 | 31.6
RPMI 5 mM glucose + 10% FBS, 15.4 µM | 74.2 | 12.1 | 21.4
RPMI 5 mM glucose + 10% FBS, 46.1 µM | 68.4 | 11 | 17.5
RPMI 5 mM glucose + 10% dialyzed FBS, 0.000781 µM | 102 | 103 | 111
RPMI 5 mM glucose + 10% dialyzed FBS, 0.00234 µM | 109 | 113 | 106
RPMI 5 mM glucose + 10% dialyzed FBS, 0.00702 µM | 107 | 114 | 104
RPMI 5 mM glucose + 10% dialyzed FBS, 0.0211 µM | 106 | 112 | 110
RPMI 5 mM glucose + 10% dialyzed FBS, 0.0632 µM | 114 | 115 | 111
RPMI 5 mM glucose + 10% dialyzed FBS, 0.19 µM | 114 | 113 | 98.9
RPMI 5 mM glucose + 10% dialyzed FBS, 0.569 µM | 111 | 114 | 102
RPMI 5 mM glucose + 10% dialyzed FBS, 1.71 µM | 86.8 | 23.9 | 26.9
RPMI 5 mM glucose + 10% dialyzed FBS, 5.12 µM | 67.2 | 24.5 | 33.6
RPMI 5 mM glucose + 10% dialyzed FBS, 15.4 µM | 66.3 | 26.7 | 21.5
RPMI 5 mM glucose + 10% dialyzed FBS, 46.1 µM | 62.9 | 22.7 | 17.2

S=P(N1CC1)(N1CC1)N1CC1
AUC of viability dose-response curve
Details | NOMO1 [1] | P12-Ichikawa [3] | SEM cells [2]
HPLM + 10% dialyzed FBS | 468 | 452 | 455
RPMI 5 mM glucose + 10% FBS | 458 | 470 | 446
RPMI 5 mM glucose + 10% dialyzed FBS | 468 | 448 | 441

cell viability [%]
Details | NOMO1 [4] | P12-Ichikawa [6] | SEM cells [5]
HPLM + 10% dialyzed FBS, 0.000781 µM | 107 | 110 | 102
HPLM + 10% dialyzed FBS, 0.00234 µM | 105 | 106 | 106
HPLM + 10% dialyzed FBS, 0.00702 µM | 99 | 113 | 110
HPLM + 10% dialyzed FBS, 0.0211 µM | 104 | 107 | 96.7
HPLM + 10% dialyzed FBS, 0.0632 µM | 98.5 | 112 | 104
HPLM + 10% dialyzed FBS, 0.19 µM | 98.6 | 105 | 107
HPLM + 10% dialyzed FBS, 0.569 µM | 110 | 108 | 103
HPLM + 10% dialyzed FBS, 1.71 µM | 97.3 | 97.4 | 98.5
HPLM + 10% dialyzed FBS, 5.12 µM | 92.4 | 88.5 | 85.1
HPLM + 10% dialyzed FBS, 15.4 µM | 104 | 99.4 | 93.3
HPLM + 10% dialyzed FBS, 46.1 µM | 62.6 | 85.3 | 39
RPMI 5 mM glucose + 10% FBS, 0.000781 µM | 92.8 | 98.3 | –
RPMI 5 mM glucose + 10% FBS, 0.00234 µM | 102 | 99 | –
RPMI 5 mM glucose + 10% FBS, 0.00702 µM | 95.7 | 106 | –
RPMI 5 mM glucose + 10% FBS, 0.0211 µM | 96.4 | 102 | –
RPMI 5 mM glucose + 10% FBS, 0.0632 µM | 103 | 99.8 | –
RPMI 5 mM glucose + 10% FBS, 0.19 µM | 95.7 | 102 | –
RPMI 5 mM glucose + 10% FBS, 0.569 µM | 92.7 | 108 | –
RPMI 5 mM glucose + 10% FBS, 1.71 µM | 95.5 | 104 | –
RPMI 5 mM glucose + 10% FBS, 5.12 µM | 101 | 104 | –
RPMI 5 mM glucose + 10% FBS, 15.4 µM | 90.2 | 94.9 | –
RPMI 5 mM glucose + 10% FBS, 46.1 µM | 89.8 | 88.2 | –
RPMI 5 mM glucose + 10% dialyzed FBS, 0.000781 µM | 101 | 99.6 | 99.6
RPMI 5 mM glucose + 10% dialyzed FBS, 0.00234 µM | 105 | 108 | 108
RPMI 5 mM glucose + 10% dialyzed FBS, 0.00702 µM | 95.4 | 103 | 106
RPMI 5 mM glucose + 10% dialyzed FBS, 0.0211 µM | 91.4 | 91.7 | 105
RPMI 5 mM glucose + 10% dialyzed FBS, 0.0632 µM | 104 | 101 | 105
RPMI 5 mM glucose + 10% dialyzed FBS, 0.19 µM | 99.6 | 101 | 107
RPMI 5 mM glucose + 10% dialyzed FBS, 0.569 µM | 116 | 96.2 | 93.6
RPMI 5 mM glucose + 10% dialyzed FBS, 1.71 µM | 98.7 | 93.1 | 90.4
RPMI 5 mM glucose + 10% dialyzed FBS, 5.12 µM | 95.5 | 86.9 | 95.1
RPMI 5 mM glucose + 10% dialyzed FBS, 15.4 µM | 98.3 | 89.9 | 78.5
RPMI 5 mM glucose + 10% dialyzed FBS, 46.1 µM | 92.4 | 76.3 | 41.5

COC1=C2OC(=O)\C=C/C2=CC3=C1OC=C3
AUC of viability dose-response curve
Details | NOMO1 [1] | P12-Ichikawa [3] | SEM cells [2]
HPLM + 10% dialyzed FBS | 465 | 447 | 459
RPMI 5 mM glucose + 10% FBS | 451 | 449 | 458
RPMI 5 mM glucose + 10% dialyzed FBS | 466 | 426 | 456

cell viability [%]
Details | NOMO1 [4] | P12-Ichikawa [6] | SEM cells [5]
HPLM + 10% dialyzed FBS, 0.000781 µM | 117 | 118 | 121
HPLM + 10% dialyzed FBS, 0.00234 µM | 116 | 113 | 117
HPLM + 10% dialyzed FBS, 0.00702 µM | 120 | 115 | 129
HPLM + 10% dialyzed FBS, 0.0211 µM | 116 | 116 | 126
HPLM + 10% dialyzed FBS, 0.0632 µM | 116 | 112 | 124
HPLM + 10% dialyzed FBS, 0.19 µM | 123 | 107 | 123
HPLM + 10% dialyzed FBS, 0.569 µM | 107 | 108 | 121
HPLM + 10% dialyzed FBS, 1.71 µM | 118 | 102 | 115
HPLM + 10% dialyzed FBS, 5.12 µM | 109 | 99.7 | 116
HPLM + 10% dialyzed FBS, 15.4 µM | 101 | 61.3 | 107
HPLM + 10% dialyzed FBS, 46.1 µM | 116 | 84.6 | 93.4
RPMI 5 mM glucose + 10% FBS, 0.000781 µM | 108 | 118 | –
RPMI 5 mM glucose + 10% FBS, 0.00234 µM | 115 | 117 | –
RPMI 5 mM glucose + 10% FBS, 0.00702 µM | 115 | 117 | –
RPMI 5 mM glucose + 10% FBS, 0.0211 µM | 117 | 111 | –
RPMI 5 mM glucose + 10% FBS, 0.0632 µM | 121 | 109 | –
RPMI 5 mM glucose + 10% FBS, 0.19 µM | 113 | 110 | –
RPMI 5 mM glucose + 10% FBS, 0.569 µM | 96.5 | 113 | –
RPMI 5 mM glucose + 10% FBS, 1.71 µM | 104 | 110 | –
RPMI 5 mM glucose + 10% FBS, 5.12 µM | 108 | 109 | –
RPMI 5 mM glucose + 10% FBS, 15.4 µM | 105 | 55.6 | –
RPMI 5 mM glucose + 10% FBS, 46.1 µM | 97.3 | 86.8 | –
RPMI 5 mM glucose + 10% dialyzed FBS, 0.000781 µM | 104 | 115 | 123
RPMI 5 mM glucose + 10% dialyzed FBS, 0.00234 µM | 109 | 117 | 132
RPMI 5 mM glucose + 10% dialyzed FBS, 0.00702 µM | 115 | 119 | 124
RPMI 5 mM glucose + 10% dialyzed FBS, 0.0211 µM | 117 | 125 | 110
RPMI 5 mM glucose + 10% dialyzed FBS, 0.0632 µM | 114 | 108 | 123
RPMI 5 mM glucose + 10% dialyzed FBS, 0.19 µM | 113 | 109 | 133
RPMI 5 mM glucose + 10% dialyzed FBS, 0.569 µM | 113 | 105 | 128
RPMI 5 mM glucose + 10% dialyzed FBS, 1.71 µM | 108 | 100 | 109
RPMI 5 mM glucose + 10% dialyzed FBS, 5.12 µM | 104 | 101 | 115
RPMI 5 mM glucose + 10% dialyzed FBS, 15.4 µM | 101 | 60.2 | 108
RPMI 5 mM glucose + 10% dialyzed FBS, 46.1 µM | 107 | 74.4 | 93.7
